How the values were obtained:
[1] = tested on: ER β; conditions: ERβ versus ERα; cited from earlier work
[2] = target: ERβ LBD (amino acids 257–502) (Homo sapiens, UniProt Q92731); assay: Differential HDX mass spectrometry of ERβLBD with and without ligand; type: binding; conditions: for Average difference in deuterium levels, LOOP 271-294 / Average difference in deuterium levels, LOOP 271-295 / Average difference in deuterium levels, LOOP 273-294 / Average difference in deuterium levels, LOOP 273-295 / Average difference in deuterium levels, LOOP 274-295 / Average difference in deuterium levels, LOOP 282-294 / Average difference in deuterium levels, LOOP 282-295: ERβLBD:ligand 1:10, average of 1, 30, 60, 900, 4200 sec, negative = protection
Chain of ERβ LBD (amino acids 257–502) (Q92731 257-502): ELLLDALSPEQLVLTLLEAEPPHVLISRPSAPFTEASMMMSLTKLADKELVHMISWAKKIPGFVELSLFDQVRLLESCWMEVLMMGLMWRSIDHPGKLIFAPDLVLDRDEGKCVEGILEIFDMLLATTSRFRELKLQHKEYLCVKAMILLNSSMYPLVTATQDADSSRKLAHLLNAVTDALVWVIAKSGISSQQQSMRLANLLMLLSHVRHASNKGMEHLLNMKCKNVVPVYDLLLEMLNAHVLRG

[3] = target: T1, ERβ (Homo sapiens, UniProt Q92731); assay: Cell based functional assay, ERE-luciferase in HEK 293 cells, agonist mode; conditions: for ERβ Agonist % stim: % stimulation versus DES maximum response; for EC50: read-out: ERβ Agonist EC50, ERE-luciferase, 24 h
T1 sequence (Q92731 whole entry): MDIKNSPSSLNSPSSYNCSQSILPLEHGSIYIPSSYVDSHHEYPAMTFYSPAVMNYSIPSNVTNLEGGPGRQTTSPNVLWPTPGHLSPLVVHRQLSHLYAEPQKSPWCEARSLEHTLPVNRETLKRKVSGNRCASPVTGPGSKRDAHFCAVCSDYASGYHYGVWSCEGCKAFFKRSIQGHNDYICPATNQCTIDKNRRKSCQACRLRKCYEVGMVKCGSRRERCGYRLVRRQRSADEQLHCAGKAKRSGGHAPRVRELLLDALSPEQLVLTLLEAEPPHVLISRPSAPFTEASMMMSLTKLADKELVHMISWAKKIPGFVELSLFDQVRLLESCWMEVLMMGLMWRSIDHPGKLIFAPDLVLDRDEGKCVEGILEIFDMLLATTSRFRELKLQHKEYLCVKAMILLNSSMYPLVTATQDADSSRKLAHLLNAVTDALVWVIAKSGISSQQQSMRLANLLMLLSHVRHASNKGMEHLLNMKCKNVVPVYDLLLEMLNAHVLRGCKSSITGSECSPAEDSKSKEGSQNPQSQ

[4] = target: T1, ERβ; assay: Cell based functional assay, ERE-luciferase in HEK 293 cells, antagonist mode; conditions: for ERβ Antag % inhib.: HEK 293 cells, ERE-luciferase
[5] = target: T2, ERα (Homo sapiens, UniProt P03372); assay: ER competition binding assay
T2 sequence (P03372 1-595): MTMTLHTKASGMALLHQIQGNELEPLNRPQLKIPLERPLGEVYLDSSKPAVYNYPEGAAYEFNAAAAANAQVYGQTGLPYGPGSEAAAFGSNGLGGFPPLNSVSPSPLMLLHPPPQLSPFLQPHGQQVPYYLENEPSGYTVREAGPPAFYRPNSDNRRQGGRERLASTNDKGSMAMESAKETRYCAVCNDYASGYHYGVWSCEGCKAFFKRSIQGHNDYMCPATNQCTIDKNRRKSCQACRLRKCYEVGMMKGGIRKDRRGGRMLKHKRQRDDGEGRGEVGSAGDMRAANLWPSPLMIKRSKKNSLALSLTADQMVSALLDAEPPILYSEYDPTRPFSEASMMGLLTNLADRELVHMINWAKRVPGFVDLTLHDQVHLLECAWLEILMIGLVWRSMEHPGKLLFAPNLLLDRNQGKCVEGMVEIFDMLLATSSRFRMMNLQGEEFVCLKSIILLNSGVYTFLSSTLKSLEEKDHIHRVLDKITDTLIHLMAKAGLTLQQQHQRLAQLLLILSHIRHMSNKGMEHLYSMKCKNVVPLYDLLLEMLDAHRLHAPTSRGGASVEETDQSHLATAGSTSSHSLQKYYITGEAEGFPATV

[6] = target: T1, ERβ; assay: ER competition binding assay

| SMILES | Binding to ER β tighter than to ERα [1] | Average difference in deuterium levels, LOOP 271-294 [2] | Average difference in deuterium levels, LOOP 271-295 [2] | Average difference in deuterium levels, LOOP 273-294 [2] | Average difference in deuterium levels, LOOP 273-295 [2] | Average difference in deuterium levels, LOOP 274-295 [2] | Average difference in deuterium levels, LOOP 282-294 [2] | Average difference in deuterium levels, LOOP 282-295 [2] | ERβ Agonist % stim [3] | ERβ Antag % inhib. [4] | Ki [5] | Ki [6] | EC50 [3] | IC50 [4] | Protection to exchange, β-sheet1/β-sheet2 region ([2]; amino acid 355–362 of ERβLBD, p<0.001, positive = protection) | Protection (stabilization) of helix 3 to H/D exchange, ERβ ([2]; helix 3, amino acids 296–309 in ERβ, positive = protection) |
| --- | --- | --- | --- | --- | --- | --- | --- | --- | --- | --- | --- | --- | --- | --- | --- | --- |
| O=c1c(-c2ccc(O)cc2)coc2cc(O)cc(O)c12 [Genistein, genistein] | approximately 10 fold | – | – | – | – | – | – | – | – | – | – | – | – | – | – | – |
| C[C@]12CC[C@@H]3c4ccc(O)cc4CC[C@H]3[C@@H]1CC[C@@H]2O [Estradiol, 17β-estradiol] | – | −6% | −7% | −9% | −6% | −8% | −7% | −6% | 100% | – | – | – | – | – | – | – |
| CC/C(=C(/CC)c1ccc(O)cc1)c1ccc(O)cc1 [DES, Diethylstilbestrol] | – | −10% | −10% | −12% | −10% | −10% | −8% | −10% | 97% | – | – | – | – | – | – | – |
| Oc1ccc2c(c1)CC[C@H](c1ccccc1)[C@@H]2c1ccc(OCCN2CCCC2)cc1 [Lasodoxifene, lasofoxifene] | – | −11% | −11% | −12% | −9% | −12% | −9% | −9% | – | 103% | – | – | – | – | – | – |
| O=C(c1ccc(OCCN2CCCC2)cc1)c1c(-c2ccc(O)cc2)sc2cc(O)ccc12 [compound 117018] | – | −7% | −7% | −8% | −7% | −8% | −7% | −8% | – | 108% | 0.32 nM | 1.3 nM | > 10000 nM | 204 nM | – | – |
| CC/C(=C(\c1ccc(O)cc1)c1ccc(OCCN(C)C)cc1)c1ccccc1 [4-hydroxy tamoxifen, 4-hydroxytamoxifen] | – | −8% | −11% | −12% | −11% | −12% | −10% | −11% | – | – | – | – | – | – | ~ 20% | 13% |
| O=C(c1ccc(O)cc1)c1c(-c2ccc(O)cc2)sc2cc(O)ccc12 [compound 88074] | – | −7% | −8% | −9% | −7% | −8% | −7% | −7% | 104% | – | – | – | 232 nM | – | – | – |
| O=C(c1ccc(OCCN2CCCCC2)cc1)c1c(-c2ccc(O)cc2)sc2cc(O)ccc12 [Raloxifene, raloxifene] | – | −7% | −7% | −9% | −7% | – | −6% | −7% | – | – | – | – | – | – | – | – |
| C[C@]12CC[C@@H]3c4ccc(O)cc4C[C@@H](CCCCCCCCC[S+]([O-])CCCC(F)(F)C(F)(F)F)[C@H]3[C@@H]1CC[C@@H]2O (stereo partly drawn) [ICI, ICI 182780] | – | −9% | −10% | −11% | −10% | −11% | −9% | −10% | – | 109% | – | – | – | – | – | – |
